# Source: article PMC10413460 (ACS Omega, 2023)
# Target: epidermal growth factor receptor tyrosine kinase (EGFR-TK) (Homo sapiens, UniProt P00533)
# Assay: ADP-Glo kinase assay, cell-free
# Type: biochemical
# epidermal growth factor receptor tyrosine kinase (EGFR-TK), sequence (P00533 669-1210 limits assumed): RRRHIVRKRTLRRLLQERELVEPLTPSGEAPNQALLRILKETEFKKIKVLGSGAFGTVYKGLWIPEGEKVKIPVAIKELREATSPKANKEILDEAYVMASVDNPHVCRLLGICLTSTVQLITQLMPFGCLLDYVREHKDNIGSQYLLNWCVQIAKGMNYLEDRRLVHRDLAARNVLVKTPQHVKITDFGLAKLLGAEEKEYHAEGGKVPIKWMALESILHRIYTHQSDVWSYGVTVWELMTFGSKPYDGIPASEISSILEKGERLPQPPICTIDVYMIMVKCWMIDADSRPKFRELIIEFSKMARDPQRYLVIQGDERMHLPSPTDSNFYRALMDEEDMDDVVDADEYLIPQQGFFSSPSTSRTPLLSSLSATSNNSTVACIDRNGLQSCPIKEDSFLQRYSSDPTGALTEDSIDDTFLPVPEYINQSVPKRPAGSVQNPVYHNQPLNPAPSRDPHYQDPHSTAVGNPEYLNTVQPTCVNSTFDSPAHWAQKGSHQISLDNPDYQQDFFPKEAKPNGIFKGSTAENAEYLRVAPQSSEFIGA
smiles,measurement,value
COC(=O)[C@@]12OC[C@]34[C@H]([C@@H](O)[C@@H]1O)[C@@]1(C)CC(=O)C(O)=C(C)[C@@H]1C[C@H]3OC(=O)[C@H](OC(=O)C=C(C)C)[C@@H]24 [brusatol],IC50,333 nM
